According to patent publication US20240109853A1 (Shanghai Yao Yuan Biotechnology Co., Ltd., priority 2020, published 2024):

Molecular target: ALPK1 (Homo sapiens (Human), UniProt Q96QP1)
Test: ALPK1 in vitro kinase assay (HTRF of TIFA phosphorylation)
Assay type: biochemical
Settings: not given
Text: In embodiments, a compound of Formula I, or a subembodiment described herein, is an inhibitor of ALPK1 as measured, for example, in an in vitro kinase assay, or an assay designed to measure the activation of downstream targets of ALPK1 pathway activation, for example NFkB transcriptional activation and the secretion of proinflammatory cytokines and chemokines, such as IL-8, which is also referred to as CXCL-8. In general, the computer program XL fit was used for data analysis, including non-linear regression analysis. The half maximal inhibitory concentration (IC50) was used as the measure of a compound's effectiveness in the assays. IC50 values were determined using the following logistic equation Y=min+(max−min)/(1+(X/IC50^−hillslpoe), where Y is the value at the compound concentration, X. The concentration response curve fitting was conducted using GraphPad Prism version 6.00 software.
ALPK1 kinase activity was measured in an in vitro assay using ADP-Heptose as the ALPK1 ligand and activator of its kinase activity and TIFA protein as the ALPK1 phosphorylation substrate. Since phosphorylated TIFA proteins oligomerize, Homogeneous Time-Resolved Fluorescence (HTRF) was used to measure protein:protein interaction between HA-tagged TIFA proteins as an indicator of TIFA phosphorylation.
In brief, dose-response studies were performed with HEK293 cells cultured in Dulbecco's Modified Eagle Medium (DMEM) supplemented 10% fetal bovine serum (FBS, Hyclone™) containing antibiotics (pen/strep, G418) in 384-well assay plates. Each well contained 0.1 mg TIFA, ALPK1 (2 nM final concentration in reaction mixture) and kinase buffer (100 mM of HEPES pH 7.4, 4 mM DTT, 40 mM MgCl2, 20 mM of β-Glycerol phosphate disodium salt, 0.4 mM of Na3VO4, 0.16 mg/mL). Titrations of the test compounds were prepared in dimethylsulphoxide (DMSO). The reaction was initiated by addition of ATP and ADP-Heptose.
For HTRF, samples were incubated with a Tb cryptate-labeled anti-HA antibody for capturing HA-tagged proteins according to the manufacturer's instructions (PerkinElmer™, CisBio™) and the fluorescence signal was quantified (Tecan Infinite F NANO+). HTRF signals were calculated as the HTRF ratio (ratio of fluorescence measured at 665 nm and 620 nm)×104 (thereby using the signal at 620 nm as an internal standard).
IC50 values were determined using 3- or 4-parameter logistic equation using GraphPad Prism version 6.00. The reference compound, A027, was used as a positive control for each plate.

ALPK1, sequence (Q96QP1 whole entry): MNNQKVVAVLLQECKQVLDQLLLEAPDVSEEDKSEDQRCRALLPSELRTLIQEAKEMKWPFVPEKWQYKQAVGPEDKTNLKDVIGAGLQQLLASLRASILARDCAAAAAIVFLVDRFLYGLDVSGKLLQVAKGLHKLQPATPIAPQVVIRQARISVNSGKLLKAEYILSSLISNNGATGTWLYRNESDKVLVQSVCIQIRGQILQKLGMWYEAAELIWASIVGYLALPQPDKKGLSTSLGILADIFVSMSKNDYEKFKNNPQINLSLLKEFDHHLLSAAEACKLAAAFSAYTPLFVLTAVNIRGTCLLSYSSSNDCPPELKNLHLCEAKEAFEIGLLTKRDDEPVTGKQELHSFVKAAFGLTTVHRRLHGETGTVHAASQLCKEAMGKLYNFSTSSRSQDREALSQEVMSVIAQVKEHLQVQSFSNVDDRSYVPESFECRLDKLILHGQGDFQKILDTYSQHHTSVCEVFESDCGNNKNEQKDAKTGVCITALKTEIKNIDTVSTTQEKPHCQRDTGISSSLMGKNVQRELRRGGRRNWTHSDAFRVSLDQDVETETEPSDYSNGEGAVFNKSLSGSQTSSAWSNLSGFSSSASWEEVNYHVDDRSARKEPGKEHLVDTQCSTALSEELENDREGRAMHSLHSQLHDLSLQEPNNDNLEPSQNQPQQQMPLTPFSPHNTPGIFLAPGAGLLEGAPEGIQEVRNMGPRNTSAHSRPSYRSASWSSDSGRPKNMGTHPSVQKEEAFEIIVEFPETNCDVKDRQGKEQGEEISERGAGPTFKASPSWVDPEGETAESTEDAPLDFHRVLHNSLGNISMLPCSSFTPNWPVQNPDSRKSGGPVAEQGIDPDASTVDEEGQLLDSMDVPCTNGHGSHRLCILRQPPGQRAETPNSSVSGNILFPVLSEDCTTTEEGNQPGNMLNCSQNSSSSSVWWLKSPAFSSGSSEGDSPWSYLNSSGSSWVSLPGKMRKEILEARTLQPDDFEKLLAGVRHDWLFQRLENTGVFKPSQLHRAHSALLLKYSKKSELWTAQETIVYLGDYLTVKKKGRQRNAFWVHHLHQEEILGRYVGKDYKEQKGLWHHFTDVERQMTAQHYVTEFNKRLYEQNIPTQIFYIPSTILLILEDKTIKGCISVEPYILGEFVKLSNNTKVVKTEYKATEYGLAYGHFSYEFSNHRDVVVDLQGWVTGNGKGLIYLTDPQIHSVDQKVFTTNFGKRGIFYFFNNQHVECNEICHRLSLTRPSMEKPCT

Structure (SMILES)	IC50 [nM]
COc1ccc(C(C)(C)c2csc(NC(=O)NCc3ccc(N4CCC(O)C4)cc3)n2)cc1 (centres unmarked) [Example A069, 1-(4-(3-hydroxypyrrolidin-1-yl)benzyl)-3-(4-(2-(4-methoxyphenyl)propan-2-yl)thiazol-2-yl)urea]	269
COc1ccc(C(C)(C)c2csc(NC(=O)NCCCC(=O)NC3CCNCC3)n2)cc1 [Example A071, 4-(3-(4-(2-(4-methoxyphenyl)propan-2-yl)thiazol-2-yl)ureido)-N-(piperidin-4-yl)butanamide]	64
COc1ccc(C(C)(C)c2csc(NC(=O)NCC(=O)CO)n2)cc1 [Example A074, 1-(3-hydroxy-2-oxopropyl)-3-(4-(2-(4-methoxyphenyl)propan-2-yl)thiazol-2-yl)urea]	61
CC(C)(c1ccc(Br)cc1)c1csc(NC(=O)NCc2cnc(N3CCC(N)C3)nc2)n1 (centres unmarked) [Example A078, 1-((2-(3-aminopyrrolidin-1-yl)pyrimidin-5-yl)methyl)-3-(4-(2-(4-bromophenyl)propan-2-yl)thiazol-2-yl)urea]	8
Cc1nc(CNC(=O)Nc2nc(C(C)(C)c3ccc(Br)cc3)cs2)cc(N2CCNCC2)n1 [Example A095, 1-(4-(2-(4-bromophenyl)propan-2-yl)thiazol-2-yl)-3-((2-methyl-6-(piperazin-1-yl)pyrimidin-4-yl)methyl)urea]	32
COc1ccc(CNC(=O)Nc2nc(C(C)(C)c3ccc(Br)cc3)cs2)cc1F [Example A107, 1-(4-(2-(4-bromophenyl)propan-2-yl)thiazol-2-yl)-3-(3-fluoro-4-methoxybenzyl)urea]	216
COc1ccc(C(C)(C)c2csc(NC(=O)NCc3ccc(NCCO)cc3)n2)cc1 [Example A109, 1-(4-((2-hydroxyethyl)amino)ben-zyl)-3-(4-(2-(4-methoxyphenyl)propan-2-yl)thiazol-2-yl)urea]	146
CC(C)(c1ccc(Br)cc1)c1csc(NC(=O)NCc2cnc(N3CCNC(=O)C3)c(F)c2)n1 [Example A112, 1-(4-(2-(4-bromophenyl)propan-2-yl)thiazol-2-yl)-3-((5-fluoro-6-(3-oxopiperazin-1-yl)pyridin-3-yl)methyl)urea]	334
CC(C)(c1ccc(Br)cc1)c1csc(NC(=O)NCc2cnc(N3CCNC(=O)C3)nc2)n1 [Example A113, 1-(4-(2-(4-bromophenyl)propan-2-yl)thiazol-2-yl)-3-((2-(3-oxopiperazin-1-yl)pyrimidin-5-yl)methyl)urea]	126
COc1ccc(C(C)(C)c2csc(NC(=O)NCCCC(N)=O)n2)cc1 [Example A114, 4-(3-(4-(2-(4-methoxyphenyl)propan-2-yl)thiazol-2-yl)ureido)butanamide]	260
CNC(=O)Nc1nc(C(C)(C)c2ccc(OC)cc2)cs1 [Example A143, 1-(4-(2-(4-methoxyphenyl)propan-2-yl)thiazol-2-yl)-3-methylurea]	53
O=C(NCc1cnc(N2CCNCC2)nc1)Nc1nc(C2(c3ccc(Br)cc3)CCCC2)cs1 [Example A180, 1-(4-(1-(4-bromophenyl)cyclopent-yl)thiazol-2-yl)-3-((2-(piperazin-1-yl)pyrimidin-5-yl)methyl)urea]	45
COc1ccc(C(C)(C)c2csc(NC(=O)NCc3ccc(N4CCC(N)C4)cc3)n2)cc1 (centres unmarked) [Example A184, 1-(4-(3-aminopyrrolidin-1-yl)benzyl)-3-(4-(2-(4-methoxyphenyl)propan-2-yl)thiazol-2-yl)urea]	242
COc1ccc(C(C)(C)c2csc(NC(=O)NCc3ccc(N4CCNCC4)c(C(=O)N(C)C)c3)n2)cc1 [Example A185, 5-((3-(4-(2-(4-methoxyphenyl)propan-2-yl)thiazol-2-yl)ureido)methyl)-N,N-dimethyl-2-(piperazin-1-yl)benzamide]	56
COc1ccc(C(C)(C)c2csc(NC(=O)NCCCCN)c2)cc1 [Example A188, 1-(4-aminobutyl)-3-(4-(2-(4-methoxyphenyl)propan-2-yl)thiophen-2-yl)urea]	59
CC(C)(c1ccc(Br)cc1)c1csc(NC(=O)NCc2ccc(N3CCCNCC3)c(F)c2)n1 [Example A197, 1-(4-(1,4-diazepan-1-yl)-3-fluorobenzyl)-3-(4-(2-(4-bromophenyl)propan-2-yl)thiazol-2-yl)urea]	67
COc1ccc(C(C)(C)c2csc(NC(=O)NCc3ccc(N4CCC(N)C4)nc3)n2)cc1 (centres unmarked) [Example A199, 1-((6-(3-aminopyrrolidin-1-yl)pyridin-3-yl)methyl)-3-(4-(2-(4-methoxyphenyl)propan-2-yl)thiazol-2-yl)urea]	34
CC(C)(c1ccc(Br)cc1)c1csc(NC(=O)NCc2cnc(NCCN3CCNCC3)nc2)n1 [Example A206, 1-(4-(2-(4-bromophenyl)propan-2-yl)thiazol-2-yl)-3-((2-((2-(piperazin-1-yl)ethyl)amino)pyrimidin-5-yl)methyl)urea]	68
COc1ccc(C(C)(C)c2csc(NC(=O)NCc3cnc(N4CCNCC4)c(C(N)=O)c3)n2)cc1 [Example A209, 5-((3-(4-(2-(4-methoxyphenyl)propan-2-yl)thiazol-2-yl)ureido)methyl)-2-(piperazin-1-yl)nicotinamide]	43
C#C[C@](C)(c1ccc(OC)cc1)c1csc(NC(=O)N2CC(CO)C2)n1 [Example A255, (R)-3-(hydroxymethyl)-N-(4-(2-(4-methoxyphenyl)but-3-yn-2-yl)thiazol-2-yl)azetidine-1-carboxamide]	688
C#CC(C)(c1ccc(Cl)cc1)c1csc(NC(=O)N(C)CCO)n1 (centres unmarked) [Example A266, 3-(4-(2-(4-chlorophenyl)but-3-yn-2-yl)thiazol-2-yl)-1-(2-hydroxyethyl)-1-methylurea]	546
C#CC(C)(c1ccc(Cl)cc1)c1csc(NC(=O)N(CCO)CCO)n1 (centres unmarked) [Example A267, 3-(4-(2-(4-chlorophenyl)but-3-yn-2-yl)thiazol-2-yl)-1,1-bis(2-hydroxyethyl)urea]	171

Same assay, conditions: ALPK1 2 nM, TIFA substrate, ADP-Heptose activator, HTRF readout

Structure (SMILES)	IC50 [nM]
COc1ccc(C(C)(C)c2csc(NC(=O)c3ccc(N4CCNCC4)cc3)n2)cc1 [Example B001, N-(4-(2-(4-methoxyphenyl)propan-2-yl)thiazol-2-yl)-4-(piperazin-1-yl)benzamide]	123
CC(C)(c1ccc(Br)cc1)c1csc(NC(=O)c2ccc3[nH]ccc3c2)n1 [Example B002, N-(4-(2-(4-bromophenyl)propan-2-yl)thiazol-2-yl)-1H-indole-5-carboxamide]	206
CC(C)(c1ccc(Br)cc1)c1csc(NC(=O)c2ccc(C(N)=O)cc2)n1 [Example B003, N-(4-(2-(4-bromophenyl)propan-2-yl)thiazol-2-yl)terephthalamide]	192
COc1ccc(C(C)(C)c2csc(NC(=O)c3cccc(N4CCNCC4)c3)n2)cc1 [Example B004, N-(4-(2-(4-methoxyphenyl)propan-2-yl)thiazol-2-yl)-3-(piperazin-1-yl)benzamide]	211
COc1ccc(C(C)(C)c2csc(NC(=O)c3cccc(CN4CCNCC4)c3)n2)cc1 [Example B005, N-(4-(2-(4-methoxyphenyl)propan-2-yl)thiazol-2-yl)-3-(piperazin-1-ylmethyl)benzamide]	215
COc1ccc(C(C)(C)c2csc(NC(=O)c3ccc(N4CCN(CCO)CC4)cc3)n2)cc1 [Example B006, 4-(4-(2-hydroxyethyl)piperazin-1-yl)-N-(4-(2-(4-methoxyphenyl)propan-2-yl)thiazol-2-yl)benzamide]	595
COc1ccc(C(C)(C)c2csc(NC(=O)c3cccc(N4CCN(CCO)CC4)c3)n2)cc1 [Example B007, 3-(4-(2-hydroxyethyl)piperazin-1-yl)-N-(4-(2-(4-methoxyphenyl)propan-2-yl)thiazol-2-yl)benzamide]	230
COc1ccc(C(C)(C)c2csc(NC(=O)c3ccc(N4CCNCC4)cc3Cl)n2)cc1 [Example B008, 2-chloro-N-(4-(2-(4-methoxyphenyl)propan-2-yl)thiazol-2-yl)-4-(piperazin-1-yl)benzamide]	37
COc1ccc(C(C)(C)c2csc(NC(=O)c3ccc(N4CCC(O)C4)cc3)n2)cc1 (centres unmarked) [Example B009, 4-(3-hydroxypyrrolidin-1-yl)-N-(4-(2-(4-methoxyphenyl)propan-2-yl)thiazol-2-yl)benzamide]	951
COc1ccc(C(C)(C)c2csc(NC(=O)c3ccc(N4CCC(N(C)C)C4)nc3)n2)cc1 (centres unmarked) [Example B010, 6-(3-(dimethylamino)pyrrolidin-1-yl)-N-(4-(2-(4-methoxyphenyl)propan-2-yl)thiazol-2-yl)nicotinamide]	187
